Assay results: the RepoRT retention time repository (doi:10.1021/acs.analchem.2c02893)
Blank lines part the entries; values can stand above or below the molecule they belong to.

Assay: RP, Thermo Scientific Acclaim RSLC 120 C18, 100 × 2.1 mm, 2.2 µm, 30 °C, 0.2 mL/min, estimated dead time 1.1 min; A: 90% water + 10% methanol + 0.01% formic acid + 5 mM ammonium formate, pH 3.61; B: methanol + 0.01% formic acid + 5 mM ammonium formate, pH 3.61; gradient (min/%B) 0/1 1/1 2/39 13/99.9 15/99.9 15.1/1 20.1/1
Details: stereoisomer not certain

Compound: O=C1N(CCN2CCCCC2)C(=O)C(c2ccccc2)(N2CCCCC2)C(=O)N1CCN1CCCCC1 [Barverin]
LC retention time: 7.64 min

Compound: O=C1CC2OCC=C3CN4CCC56c7ccccc7N1C5C2C3CC46 (stereo not drawn) [Strychnine]
LC retention time: 4.16 min

Compound: Cc1ccc(C(=O)C(C)N2CCCC2)cc1 (stereo not drawn) [MePPP (4-4-Methyl-pyrrolidinopropiophenone)]
LC retention time: 4.76 min

Compound: Fc1ccc(Oc2ccnc3cc(Cl)cc(Cl)c23)cc1 [Quinoxyphen]
LC retention time: 12.8 min

Compound: CC(=O)Oc1cc(C(C)C)c(OCCN(C)C)cc1C [Moxisylyte]
LC retention time: 6.21 min

Compound: CN(C)C(=O)Nc1ccc(-n2nc(C(C)(C)C)oc2=O)c(Cl)c1 [Dimefuron]
LC retention time: 8.76 min

Compound: COc1nc(C)nc(NC(=O)NS(=O)(=O)c2ccccc2Cl)n1 [Chlorsulfuron]
LC retention time: 6.54 min

Compound: CCN(CC)CCc1c[nH]c2ccccc12 [DET]
LC retention time: 4.34 min

Compound: CNC(C)Cc1ccc(O)cc1 (stereo not drawn) [Pholedrine (Amphetamine-P-Hydroxy-methyl)]
LC retention time: 2.91 min

Compound: C=CCC1(C(C)C#CCC)C(=O)NC(=O)N(C)C1=O (stereo not drawn) [Methohexital]
LC retention time: 9.09 min

Compound: N#Cc1c[nH]cc1-c1cccc(Cl)c1Cl [Fenpiclonil]
LC retention time: 8.91 min

Compound: CCOP(=S)(OCC)Oc1nc(Cl)n(C(C)C)n1 [Isazophos]
LC retention time: 9.87 min

Compound: COP(=O)(OC)OC(C)=CC(=O)OC(C)c1ccccc1 (stereo not drawn) [Crotoxyphos]
LC retention time: 9.39 min

Compound: COc1ccc2c3c1OC1C(O)CCC4C(C2)N(C)CCC341 (stereo not drawn) [Codeine-Dihydro]
LC retention time: 3.36 min

Compound: COC(=O)COc1ccc(Cl)cc1Cl [2.4-D-methylester]
LC retention time: 9.61 min

Compound: CNC(=N[N+](=O)[O-])NCC1CCOC1 (stereo not drawn) [Dinotefuran]
LC retention time: 3.59 min

Compound: CCN(CC)CCN1C(=O)CN=C(c2ccccc2F)c2cc(Cl)ccc21 [Flurazepam]
LC retention time: 6.61 min

Compound: COc1ccc2c3c1OC1C(=O)CCC4(O)C(C2)NCCC314 (stereo not drawn) [Oxycodone-Nor]
LC retention time: 3.71 min

Compound: CC1CN(C2CCC(C#N)(c3ccc(F)cc3)CC2)CCC1(C(=O)O)c1ccccc1 (stereo not drawn) [Levocabastine]
LC retention time: 6.95 min

Compound: CCC(C)C1OC2(CCC1C)CC1CC(CC=C(C)C(OC3CC(OC)C(OC4CC(OC)C(O)C(C)O4)C(C)O3)C(C)C=CC=C3COC4C(O)C(C)=CC(C(=O)O1)C34O)O2 (stereo not drawn) [Ivermectin B1a]
LC retention time: 14.4 min

Compound: Cc1[nH]c(C)c(Cl)c(=O)c1Cl [Clopidol]
LC retention time: 4.2 min

Compound: CCCCCn1cc(C(=O)Cc2ccccc2Cl)c2ccccc21 [JWH-203]
LC retention time: 12.2 min

Compound: CC=C1CC(C)C(C)(O)C(=O)OCC2=CCN(C)CCC(OC1=O)C2=O (stereo not drawn) [Senkirkine]
LC retention time: 5.16 min

Compound: CCc1cccc(C)c1NC(=O)CS(=O)(=O)O
LC retention time: 5.24 min

Compound: COCC(C)N(C(=O)C(=O)O)c1c(C)csc1C (stereo not drawn) [Dimethenamide-OXA]
LC retention time: 6.36 min

Compound: COc1nc(C)nc(NC(=O)NS(=O)(=O)c2ccccc2CCC(F)(F)F)n1 [Prosulfuron]
LC retention time: 8.57 min

Compound: COP(=S)(OC)Oc1ccc(S(=O)(=O)N(C)C)cc1 [Famphur]
LC retention time: 7.99 min

Compound: O=C1Nc2ccc(Br)cc2C(c2ccccc2Cl)=NC1O (stereo not drawn) [Phenazepam- 3-Hydroxy]
LC retention time: 8.34 min

Compound: Cn1c([N+](=O)[O-])cnc1COC(N)=O [Ronidazole]
LC retention time: 3.55 min

Compound: CCCN(CCC)c1c([N+](=O)[O-])cc(S(N)(=O)=O)cc1[N+](=O)[O-] [Oryzalin]
LC retention time: 10.3 min

Compound: Cc1nnc2n1-c1ccc(Cl)cc1C(c1ccccc1Cl)=NC2 [Triazolam]
LC retention time: 8.05 min

Compound: O=C(O)c1cc(Oc2ccc(C(F)(F)F)cc2Cl)ccc1[N+](=O)[O-] [Acifluorfen]
LC retention time: 8.95 min

Compound: CCCOc1nn(C(=O)NS(=O)(=O)c2ccccc2C(=O)OC)c(=O)n1C [Propoxycarbazone]
LC retention time: 5.73 min

Compound: CNC(=O)ON=CC(C)(C)S(C)=O (stereo not drawn) [Aldicarb-sulfoxide]
LC retention time: 3.5 min

Compound: CC(C)OC(=O)c1cc(C(=O)OC(C)C)cc([N+](=O)[O-])c1 [Nitrothal-isopropyl]
LC retention time: 12 min

Compound: CCCCCCCCc1ccc(OCCO)cc1 [Octylphenol monoethoxylates (OP1EO)_NH4 adduct]
LC retention time: 12.4 min

Compound: CC1C(c2ccc(Cl)cc2)SC(=O)N1C(=O)NC1CCCCC1 (stereo not drawn) [Hexythiazox]
LC retention time: 12.6 min

Compound: CC(C)(C)NCC(O)COc1nsnc1N1CCOCC1 (stereo not drawn) [Timolol]
LC retention time: 4.88 min

Compound: NC(=O)Nc1ccc(Cl)c(Cl)c1 [3-4-(dichlorophenyl)-urea]
LC retention time: 7.99 min

Compound: c1ccc(C(c2ccccc2)C2CCCCN2)cc1 (stereo not drawn) [Desoxypipradol]
LC retention time: 6.3 min

Compound: CSC(=O)c1cccc2nnsc12 [Acibenzolar-S-Methyl]
LC retention time: 9.65 min

Compound: CON=C(C(=O)OC)c1ccccc1COc1ccccc1C [Kresoxim-methyl]
LC retention time: 10.8 min

Compound: Nc1c([N+](=O)[O-])ccc(Oc2ccccc2)c1Cl [Aclonifen]
LC retention time: 10.9 min

Compound: CCCCCn1cc(C(=O)Cc2ccccc2C)c2ccccc21 [JWH-251]
LC retention time: 12.2 min

Compound: CC12CCC3C(CCC4=CC(=O)CCC43C)C1CCC2=O (stereo not drawn) [A4 (4-androsten-3 17-dione)]
LC retention time: 9.36 min

Compound: c1ccc2c(c1)Cc1cccnc1N1CCNCC21 (stereo not drawn) [Mirtazapine-Desmethyl (normirtazapine)]
LC retention time: 5.31 min

Compound: COc1ccc2c3c([nH]c2c1)C(C)=NCC3 [Harmaline]
LC retention time: 5.06 min

Compound: COc1ccc(CC(C)N)cc1 (stereo not drawn) [PMA]
LC retention time: 4.34 min

Compound: CCC=CCC1=C(C)C(OC(=O)C2C(C=C(C)C)C2(C)C)CC1=O (stereo not drawn) [Pyrethrins: Jasmolin I]
LC retention time: 13.3 min

Compound: CCCCCn1cc(C(=O)Cc2ccccc2OC)c2ccccc21 [JWH-250]
LC retention time: 11.8 min

Results, then the molecule that gave them:

LC retention time: 7.85 min
Compound: CC12C=CC(=O)C=C1CCC1C2C(=O)CC2(C)C1CCC2(O)C(=O)CO (stereo not drawn) [Prednisone]

LC retention time: 6.09 min
Compound: O=C(O)CCC(=O)c1ccc(F)cc1 [4-Fluorobenzoylpropionic acid]

LC retention time: 8.28 min
Compound: OCCOCCN1CCN(C(c2ccccc2)c2ccc(Cl)cc2)CC1 (stereo not drawn) [Hydroxyzine]

LC retention time: 8.39 min
Compound: COC(=O)C1=C(C)NC(C)=C(C(=O)OCCN(C)Cc2ccccc2)C1c1cccc([N+](=O)[O-])c1 (stereo not drawn) [Nicardipine]

LC retention time: 9.82 min
Compound: COc1ccc2cc(CCC(C)=O)ccc2c1 [Nabumetone]

LC retention time: 11.1 min
Compound: CC(C)c1nc(CN(C)C(=O)NC(C(=O)NC(Cc2ccccc2)CC(O)C(Cc2ccccc2)NC(=O)OCc2cncs2)C(C)C)cs1 (stereo not drawn) [Ritonavir]

LC retention time: 9.59 min
Compound: COc1cc(C=C2CCCC(=Cc3ccc(O)c(OC)c3)C2=O)ccc1O [Cyclovalone]

LC retention time: 5.29 min
Compound: CCC1(c2ccccc2)C(=O)NCNC1=O [Primidone]

LC retention time: 6.6 min
Compound: Cc1ccc(NC(=O)c2ccc(CN3CCN(C)CC3)cc2)cc1Nc1nccc(-c2cccnc2)n1 [Imatinib]

LC retention time: 7.6 min
Compound: CCCc1nn(C)c2c(=O)[nH]c(-c3cc(S(=O)(=O)N4CC(C)NC(C)C4)ccc3OCC)nc12 (stereo not drawn) [Sildenafil-Dimethyl]

LC retention time: 3.97 min
Compound: CN=C(NC)NCc1ccccc1 [Bethanidine]

LC retention time: 14.5 min
Compound: CC(C)([CH2][Sn+]([CH2]C(C)(C)c1ccccc1)[CH2]C(C)(C)c1ccccc1)c1ccccc1 [Fenbutatin Oxide Fragm 519]

LC retention time: 6.96 min
Compound: COc1ccc2c(c1OC)C(=O)OC2C1c2c(cc3c(c2OC)OCO3)CCN1C (stereo not drawn) [Noscapine]

LC retention time: 3.79 min
Compound: CC(NCCc1ccc(O)cc1)C(O)c1ccc(O)cc1 (stereo not drawn) [Ritodrine]

LC retention time: 7.03 min
Compound: COc1ccc(CCN(C)CCCC(C#N)(c2ccc(OC)c(OC)c2)C(C)C)cc1OC (stereo not drawn) [Verapamil]

LC retention time: 2.63 min
Compound: N=C(N)c1ccccc1 [Benzamidine]

LC retention time: 6.89 min
Compound: CN(C)CCC=C1c2ccccc2COc2ccc(CC(=O)O)cc21 [Olopatadine]

LC retention time: 8.54 min
Compound: CC(NCCC(c1ccccc1)c1ccccc1)c1ccccc1 (stereo not drawn) [Fendiline]

LC retention time: 8.71 min
Compound: O=C(O)c1cc(Oc2ccc(Cl)cc2Cl)ccc1[N+](=O)[O-] [Bifenox acid]

LC retention time: 6.71 min
Compound: CN1C(=O)CC(C)(c2ccccc2)C1=O (stereo not drawn) [Methsuximide]

LC retention time: 13 min
Compound: Clc1ccc(COC(Cn2ccnc2)c2ccc(Cl)cc2Cl)c(Cl)c1 (stereo not drawn) [Miconazole]

LC retention time: 6.94 min
Compound: COc1ccc(C(C[N+](C)(C)[O-])C2(O)CCCCC2)cc1 (stereo not drawn) [Venlafaxine-N-oxide]

LC retention time: 11.3 min
Compound: Cc1ccc(Cl)c(Nc2ccccc2C(=O)O)c1Cl [Meclofenamic acid]

LC retention time: 8.42 min
Compound: O=c1[nH]c2ccccc2n1CCCN1CCN(C(c2ccccc2)c2ccccc2)CC1 [Oxatomide]

LC retention time: 6.94 min
Compound: CN1CCN2c3ccccc3Cc3ccccc3C2C1 (stereo not drawn) [Mianserine]

LC retention time: 10.3 min
Compound: COc1ccc2c(c1)c(CC(=O)O)c(C)n2C(=O)c1ccc(Cl)cc1 [Indomethacin]

LC retention time: 4.24 min
Compound: CC(=O)Nc1ccc(S(=O)(=O)Nc2nccs2)cc1 [Sulfathiazole-N4-Acetyl]

LC retention time: 5.58 min
Compound: O=C(O)Cn1c(=O)sc2cccc(Cl)c21 [Benazolin]

LC retention time: 7.94 min
Compound: O=C1C(CCS(=O)c2ccccc2)C(=O)N(c2ccccc2)N1c1ccccc1 (stereo not drawn) [Sulfinpyrazone]

LC retention time: 12.1 min
Compound: CCCCc1oc2ccccc2c1C(=O)c1cc(I)c(OCCN(CC)CC)c(I)c1 [Amiodarone]

LC retention time: 10.6 min
Compound: CCC(Oc1ccc(F)c(C(F)(F)F)c1)C(=O)NCc1ccccc1 (stereo not drawn) [Beflubutamide]

LC retention time: 10.5 min
Compound: CC(C)(C)C(O)C(=Cc1ccc(Cl)cc1)n1cncn1 (stereo not drawn) [Uniconazole]

LC retention time: 3.16 min
Compound: CCN(CC)C(=O)N1CCN(C)CC1 [Carbamazine-Diethyl]
